Consider three compounds from patent US9708309B2, “Arylcyclopropylamine based demethylase inhibitors of LSD1 and their medical use” (Oryzon Genomics S.A., priority 2010, dated 2017).

One assay has as its target LSD1 protein (Homo sapiens (Human), UniProt O60341). Conditions: 25° C., H3-K4me2 peptide.
The next assay deals with MAO-B (Homo sapiens (Human), UniProt P27338). Particulars: ratio of kinact/KI MAO-B over MAO-A.
In the next assay the target is Human recombinant MAO-A (Homo sapiens (Human), UniProt P21397). In words: biochemical.
Human recombinant MAO-A, sequence (P21397 whole entry): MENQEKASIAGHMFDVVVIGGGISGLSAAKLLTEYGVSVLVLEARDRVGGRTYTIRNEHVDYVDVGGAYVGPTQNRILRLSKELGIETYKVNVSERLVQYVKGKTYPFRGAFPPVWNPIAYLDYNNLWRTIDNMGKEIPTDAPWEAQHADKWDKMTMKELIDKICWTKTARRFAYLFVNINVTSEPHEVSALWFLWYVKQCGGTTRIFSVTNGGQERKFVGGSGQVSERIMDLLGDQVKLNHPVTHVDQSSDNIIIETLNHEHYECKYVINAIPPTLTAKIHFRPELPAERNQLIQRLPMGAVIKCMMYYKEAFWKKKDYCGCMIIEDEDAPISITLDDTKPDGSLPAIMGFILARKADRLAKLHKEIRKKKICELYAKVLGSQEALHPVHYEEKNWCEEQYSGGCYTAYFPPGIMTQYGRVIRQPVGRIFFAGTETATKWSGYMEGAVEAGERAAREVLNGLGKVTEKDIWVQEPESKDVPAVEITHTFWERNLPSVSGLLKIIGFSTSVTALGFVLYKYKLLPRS

“Also recorded” adds a separate entry of the source.

MAO-B, sequence (P27338 whole entry): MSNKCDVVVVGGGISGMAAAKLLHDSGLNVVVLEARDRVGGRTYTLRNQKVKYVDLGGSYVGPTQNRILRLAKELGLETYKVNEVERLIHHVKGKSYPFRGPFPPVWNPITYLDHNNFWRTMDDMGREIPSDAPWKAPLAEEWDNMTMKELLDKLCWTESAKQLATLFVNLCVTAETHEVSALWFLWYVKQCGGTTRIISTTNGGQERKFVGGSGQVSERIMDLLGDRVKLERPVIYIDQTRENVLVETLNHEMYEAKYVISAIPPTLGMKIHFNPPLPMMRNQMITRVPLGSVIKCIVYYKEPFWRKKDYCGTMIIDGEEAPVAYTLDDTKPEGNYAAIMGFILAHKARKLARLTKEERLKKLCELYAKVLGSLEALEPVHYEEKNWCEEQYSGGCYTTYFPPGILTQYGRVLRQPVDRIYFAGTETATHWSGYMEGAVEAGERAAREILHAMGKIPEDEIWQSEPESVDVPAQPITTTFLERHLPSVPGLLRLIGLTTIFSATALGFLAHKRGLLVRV
Excerpt for Human recombinant MAO-A: Human recombinant monoamine oxidase proteins MAO-A and MAO-B were purchased from Sigma Aldrich. […] In order to monitor MAO enzymatic activities and/or their inhibition rate by inhibitor(s) of interest, a fluorescent-based (inhibitor)-screening assay was set up. 3-(2-Aminophenyl)-3-oxopropanamine (kynuramine dihydrobromide, Sigma Aldrich), a non fluorescent compound was chosen as a substrate. Kynuramine is a non-specific substrate for both MAOs activities. While undergoing oxidative deamination by MAO activities, kynuramine is converted into 4-hydroxyquinoline (4-HQ), a resulting fluorescent product.
The monoamine oxidase activity was estimated by measuring the conversion of kynuramine into 4-hydroxyquinoline. Assays were conducted in 96-well black plates with clear bottom (Corning) in a final volume of 100 μL. […]
After leaving the enzyme(s) interacting with the inhibitor, 60 to 90 μM of kynuramine was added to each reaction for MAO-B and MAO-A assay respectively, and the reaction was left for 1 hour at 37° C. in the dark. […] The conversion of kynuramine to 4-hydroxyquinoline, was monitored by fluorescence (excitation at 320 nm, emission at 360 nm) using a microplate reader (Infinite 200, Tecan). Arbitrary units were used to measure levels of fluorescence produced in the absence and/or in the presence of inhibitor.
The Ki (IC50) of each inhibitor was determined at Vmax/2.
Description for LSD1 protein: The kinetic parameters of LSD1 demethylase inhibition were obtained using the peroxidase-coupled reaction method. […] The final DMSO concentration was 0.7% and constant in all assay wells.
The conversion of the Amplex® Red reagent to resorufin due to generation of H2O2 was continuously monitored by fluorescence (excitation at 540 nm, emission at 590 nm) using a microplate reader (Infinite 200, Tecan). A solution of 1 μM H2O2 was used to calibrate the fluorescence signal and the temperature was kept constant at 25° C.
Briefly, progress curves obtained in the presence of test compound were fit to derive kobs (k) based on the following equation:
The kobs values were then used to derive the kinetic constant by using the following equations (Kitz and Wilson analysis):
Description for MAO-B: For MAO-B, the protein was kept between 1.8 and 3.6 ng/ul (Sigma M7441) and kynuramine (Sigma) at 50 uM was used as substrate.

With `C#CCN[C@@H]1CCc2ccccc21` [Rasagiline], the “Catalytic efficiency kinact/KI, LSD1” value on LSD1 protein is reported as “not active; also recorded: Inactive”. In addition, on MAO-B, the “selectivity index kinact/KI for MAO-B/MAO-A” value turned out to be 120.

As usually defined, the Ki is a measure of affinity in units of concentration, obtained from inhibition or displacement. `Nc1nnc(CN[C@H]2C[C@@H]2c2ccc(OCc3cccc(F)c3)cc2)o1` (relative stereo) [Example 12, 5-((((trans)-2-(4-((3-fluorobenzyl)oxy)phenyl)cyclopropyl)amino)methyl)-1,3,4-oxadiazol-2-amine]: the Ki at Human recombinant MAO-A is 1 to 40 µM.

`Nc1nnc(CN[C@H]2C[C@@H]2c2ccc(OCc3ccc(Cl)cc3)cc2)o1` (relative stereo) [Example 14, 5-((((trans)-2-(4-((4-chlorobenzyl)oxy)phenyl)cyclopropyl)amino)methyl)-1,3,4-oxadiazol-2-amine]: the Ki on Human recombinant MAO-A was in the range of 1 to 40 µM.
